One may read the pKa as the pH at which an ionisable group is half protonated.

Experimental findings from the pKa sets of Baltruschat and Czodrowski (2020) are described below.

The structures appear in SMILES notation.

Regarding `NC(=O)N/N=C/c1ncnc2nc[nH]c12`, the pKa came out at 9.1 (acidic group) and 2.1 (basic group). Turning to `CC(=O)N(C)c1ccncc1`, where the note is “basic group”, the pKa worked out at 4.62. Molecule `Cc1cc(C)c([N+](=O)[O-])c(C)c1O` yielded a pKa (acidic group) of 8.98.

For `Oc1ccc(/N=N/c2ccncc2)cc1`, the pKa was 7.73 (acidic group) and 4.65 (basic group). In the case of `CC(=O)/C(Cl)=N/O`, the pKa (acidic group) worked out at 7.9. For the molecule `CC(=O)Nc1ccc(O)cc1`, for the setting “acidic group”, the pKa was found to be 9.5.

For `N/C(CC(N)c1ccccc1)=N\O` (centres undefined), the pKa (basic group) was determined as 8. Under “acidic group”, `O=C(O)C#Cc1ccccc1` displayed a pKa of 2.26. In turn, `O=c1[nH]c(=O)n(-c2ccccc2)[nH]1` gave a pKa (acidic group) of 4.9 and a pKa (basic group) of -4.1. `Nc1cccc(-c2cccc(N)n2)n1` came in with a pKa (basic group) of 6.7. For the molecule `O=C([O-])[C@H](NCC[NH2+][C@@H](C(=O)[O-])c1ccccc1O)c1ccccc1O`, the pKa by setting is: (acidic group) 8.79; (basic group) 6.33. In the same order, the values of `Cc1cc(O)n(-c2ccccc2)n1` are 11.3 and 1.07. As for `ClC1CN2CCC1CC2` (centres undefined), the pKa (basic group) came to 8.79. The molecule `O=c1cnn([C@H]2O[C@@H](CO)[C@H](O)[C@@H]2O)c(=O)[nH]1` showed a pKa (acidic group) of 6.6. Where the note is “basic group”, `NCCc1cccc(O)c1O` displayed a pKa of 8.6.

With `Cc1ccc2nccc(NCCC[NH+](C)C)c2c1[N+](=O)[O-]`, the pKa (basic group) is 6.15. Take `CCc1cccc(/N=N/c2ccc(N(C)C)cc2)c1`: for the setting “basic group”, the pKa came out at 2.16. Turning to `CC#C/C=C/C(=O)O`, the pKa (acidic group) was found to be 4.2. With `Cc1ccc(C)c(N)c1`, for the setting “basic group”, the pKa was 4.47. The molecule `O=C(O)c1ccc(I)cc1` came in with a pKa (acidic group) of 3.99. `CN1C[C@@H](C(=O)[O-])C=C2c3cccc4[nH]cc(c34)C[C@@H]21`: the pKa (basic group) came to 7.85. Regarding `CCCCCCCCCCCCCCCC[NH+](CCCCCCCCCCCCCCCC)CCCn1ccnc1`, the pKa (basic group) is 4.4. Regarding `O=Nc1c(O)ccc2ncsc12`, for the setting “acidic group”, the pKa was determined as 5.43. Where the note is “acidic group”, `CCCc1nnn[nH]1` gave a pKa of 5.61. In turn, `Cc1csc2nccn12` displayed a pKa (basic group) of 5.36.

Turning to `COc1cccc(O)c1O`, the pKa (acidic group) is 9.28.

Turning to `[NH3+]c1ccc(-c2cnc(-c3ccccc3)o2)cc1`, the pKa (basic group) stood at 0.5.

For the setting “acidic group”, `Oc1ccc2cc(Cl)ccc2c1` showed a pKa of 9.31. Take `CN[C@H]1C[C@H]1NC`: the pKa (basic group) worked out at 8.73.

For the molecule `CC/C=C/Cc1nccn1[C@H](C(=O)[O-])C(C)(C)S`, the pKa is 10.4 (acidic group) and 7.2 (basic group). Regarding `CN(C)CCCCCCNC(=O)/C=N/[O-]`, the pKa (basic group) stood at 10.4. With `O=Cc1cc(Cl)cc([N+](=O)[O-])c1O`, the pKa (acidic group) amounted to 4.46. The molecule `Cc1ccc(C(C)C)cc1O` returned a pKa (acidic group) of 10.3.

Molecule `CN(C)CCN(C)CC[NH+](C)C` returned a pKa (basic group) of 8.63.

With `C[C@@H]1N[C@H](CCCCCCCC(=O)[O-])CC[C@@H]1O`, where the note is “basic group”, the pKa is 10.4.

For the setting “basic group”, `COC(=O)N1c2ccccc2[C@@]23CCN4CC=C[C@]5(CC[C@]12[C@](O)(C(=O)OC)C5O)[C@H]43` (some centres undefined) came in with a pKa of 5.63. As for `CC[C@]1(c2ccccc2)NC(=O)NC1=O`, under “acidic group”, the pKa amounted to 8.5. Take `O=C(O)CS/C=C/c1ccccc1`: the pKa (acidic group) is 3.5. The same measure, in the same setting: as for `O=C(O)/C=C\C(=O)NOCc1ccccc1`, the figure is 3.8. The molecule `CC(=O)C(CCN1CCOCC1)(c1ccccc1)c1ccccc1` gave a pKa (basic group) of 6.83. In the case of `CCCCO`, the pKa (acidic group) amounted to 15.6. On the same count and under the same terms, as for `C[Si](C)(C)CCCC(=O)O`, the figure is 4.89; as for `O=C1CCC(O)=C1O`, 4.8. Regarding `NCCCNCCC[NH3+]`, the pKa (basic group) amounted to 9.72.

The molecule `COC(=O)CS` displayed a pKa (acidic group) of 7.57. In turn, `NCCCCCCN` had a pKa (basic group) of 11. Still for that read-out and setting: as for `CC(C)NCC(O)c1cccc(F)c1` (centres undefined), the figure is 9.48. As for `CCn1ccnc1C`, the pKa (basic group) is 8.09.

In turn, `Cc1nc2c(C)ccc([N+](=O)[O-])c2c(NCCC[NH+](C)C)c1C` had a pKa (basic group) of 6.67. Regarding `O=C(O)/C=C/c1ccoc1`, for the setting “acidic group”, the pKa came out at 4.31. Still for that read-out and setting: in the case of `O=C([O-])c1cc(O)c(O)c(C(=O)O)[o+]1` it was 1.8; in that of `COc1ccc(-c2nc3nnc(SC)nc3[nH]2)c(OC)c1`, 7.69; in that of `O=C(O)c1nsc2ccccc12`, 2.76. Turning to `CCCCOC(=O)c1ccc(O)cc1`, the pKa (acidic group) was 8.34.

`Nc1ccc2cnc3ccccc3c2c1` displayed a pKa (basic group) of 6.88. Molecule `Cc1ccnc2c(O)cccc12` yielded a pKa (acidic group) of 8.44. The molecule `[NH3+]C(CC(=O)[O-])c1ccccn1` (centres undefined) gave a pKa (basic group) of 2.94. For `Cc1cc(C)[nH]n1`, the pKa was 15 (acidic group) and 4.32 (basic group). Turning to `COc1ncnc2nccnc12`, for the setting “basic group”, the pKa was 1.04. With `CC#CCC(=O)O`, the pKa (acidic group) amounted to 3.6. Regarding `O=C(O)C(c1ccc(-c2ccccc2)cc1)C1(O)CCCC1` (centres undefined), where the note is “acidic group”, the pKa stood at 3.65. On the same count and under the same terms, as for `Oc1nc2cc3c(cc2[nH]1)CCCC3`, the figure is 12.2; as for `CC(C)CCOc1ccccc1/C=C\C(=O)O`, 4.38. With `CCCCCCCCCCCCCCCC[NH+](CCCCCCCCCCCCCCCC)CCn1ccnc1`, under “basic group”, the pKa was 4. On the same count and under the same terms, as for `Nc1ccc([N+](=O)[O-])c2ccccc12`, the figure is 0.53. Take `CCC1C(=O)C(CC)C1=O` (centres undefined): the pKa (acidic group) amounted to 3.5. As for `NC(=O)CN(CCN(CC(N)=O)Cc1ccccc1O)Cc1ccccc1O`, the pKa is, setting by setting: (acidic group) 10.2; (basic group) 6.54. For the setting “acidic group”, `O=c1cccccc1O` returned a pKa of 6.87.

`CC(=O)[C@@H]1C[C@H](C(=O)O)C1(C)C` gave a pKa (acidic group) of 4.63. Same read-out and setting: in the case of `NC(=S)Nc1cccc(Cl)c1` it was 12; in that of `C[n+]1ccc(C(=O)O)cc1`, 1.72.

As for `CC(C)CN(CCS)CC(C)C`, the pKa (basic group) was found to be 8.23. In the case of `Cc1cc(O)n[nH]1`, the pKa (acidic group) was 10.9. Under “basic group”, `Cn1c(CBr)nc2c(O)ccc(O)c21` registered a pKa of 3.99. For the setting “acidic group”, `[S-]c1nc(S)c2[nH]cnc2n1` displayed a pKa of 9.97. The same measure, in the same setting: as for `CCOc1ccc(C)c(C(=O)O)c1`, the figure is 3.86; as for `C=CCc1ccc(O)c(OC)c1`, 10. Molecule `COc1ccc(I)cc1C(=O)N[C@@H]1C[C@H]2CC[C@@H](C1)N2Cc1ccccc1` came in with a pKa (basic group) of 8.79.

As for `CCCC[C@H]([NH3+])C(=O)O`, the pKa (acidic group) amounted to 2.39. Still for that read-out and setting: in the case of `O=C(O)Cc1ccc(Cl)s1` it was 3.89. For the setting “basic group”, `CN(C)CCNC(=O)/C=N/[O-]` showed a pKa of 9.43. Under “acidic group”, `O=C(/C=N/O)/C=N/O` gave a pKa of 7.65. For `C=C[C@]1(O)CN2CC[C@H]1C[C@H]2[C@H](O)c1cc([O-])[nH+]c2ccccc12`, the pKa (basic group) came to 7.65. `Cc1nn(C)c(C)c1C` showed a pKa (basic group) of 4.48.

Molecule `Cn1cc(Cl)cn1` had a pKa (basic group) of 0.16.

Molecule `C1CC2CCCN2C1` gave a pKa (basic group) of 11.7. On the same count and under the same terms, in the case of `Cc1cccc2[nH]cnc12` it was 5.67.

Where the note is “acidic group”, `O=S(=O)(NCc1ccccc1)c1ccc(Br)cc1` yielded a pKa of 10.7. On the same count and under the same terms, in the case of `Fc1ccc(NC(=S)c2cccc(Br)c2)cc1` it was 10.3; in that of `O=C/C(O)=C/O`, 5.03.

For the molecule `CC(C)(C)SC(=N)c1ccccc1`, the pKa (basic group) is 9.24. Turning to `COC(=O)[C@H](NC(=O)Cc1ccccc1)[C@@H]1SC(C)(C)[C@H]2C(=O)NC(=S)N12`, the pKa (acidic group) was 8. As for `N/C(=N\O)C([NH3+])c1ccccc1` (centres undefined), the pKa (basic group) was 2.3. `CNC(=O)NC` registered a pKa (basic group) of 1.02. Still for that read-out and setting: as for `CC1=C(CC(C)NCC(O)c2ccc(C)cc2)CCC1(C)C` (centres undefined), the figure is 8.71; as for `COc1ccc(CN)cc1OC`, 9.39; as for `C[NH+]1C[C@H](C(=O)O)C[C@@]2(O)c3cccc4[nH]cc(c34)C[C@H]12`, 3.94. Same read-out and setting: as for `Cc1cc(C)c(C)c(N)c1C`, the figure is 4.3. Same read-out and setting: as for `c1ccc(C(CCN2CCCCC2)c2ccccc2)cc1`, the figure is 8.96.

`N#CC(C#N)Cc1ccc([N+](=O)[O-])cc1` yielded a pKa (acidic group) of 10.9. Turning to `CN1CCCC1`, under “basic group”, the pKa was 10.6.

For the molecule `O=C1CSc2ncnc(N3CCOCC3)c2N1`, the pKa runs as follows: (acidic group) 10.4; (basic group) 2.07. Molecule `CCNCl` displayed a pKa (basic group) of 0.93. Same read-out and setting: in the case of `CCCCCCCCOCCN(C)C` it was 8.87. Turning to `CCNc1cc[nH+]c(S)n1`, the pKa (acidic group) is 3.1. Molecule `C[n+]1c2ccccc2nc2c(O)cccc21` returned a pKa (acidic group) of 4.85. On the same count and under the same terms, in the case of `O=C(O)c1ccc(C2CC2)cc1` it was 4.42. `C/C(N)=N/N(C)C`: the pKa (basic group) is 10.

With `CC1(C)CC(NCCO)CC(C)(C)N1`, under “basic group”, the pKa stood at 10.5. In turn, `N#CCC#N` returned a pKa (acidic group) of 11.2.

For the setting “basic group”, `CC(O)CNC(C)(C)C` (centres undefined) showed a pKa of 10. The same measure, in the same setting: as for `[O-]c1nccc2c1cnc1ccccc12`, the figure is 11.3; as for `C(=C\C=N\c1ccccc1)/C=C/Nc1ccccc1`, 8.52. In turn, `CC(/N=N/O)c1ccccc1` (centres undefined) came in with a pKa (acidic group) of 8.32. For the molecule `CC1(C)C(=O)[CH-]C(=O)CC1=O`, the pKa (acidic group) is 9.73. Consider `O=C(O)c1ccc(/N=C/c2ccccc2)cc1`, for which the pKa was 4.47 (acidic group) and 1.97 (basic group).

Regarding `COc1ccc2c(c1)C(O)N(C)C=C2` (centres undefined), the pKa (basic group) is 2.15.

`Cc1cc(O)cc(O)c1C(=N)c1ccccc1` gave a pKa (basic group) of 6.75. Same read-out and setting: in the case of `COc1cc2c(cc1OC)C13CCN4C1CC1C(=CCOC5CC(=O)N2C3C51)[C@@H]4S(=O)(=O)[O-]` (some centres undefined) it was 3.12; in that of `c1ccc(CN(CC2CO2)CC2CO2)cc1` (centres undefined), 5.75. On the same count and under the same terms, in the case of `Cc1cc([S-])[nH+]c([S-])n1` it was 6.87; in that of `C=CC(=O)NCCCN(C)C`, 9.23; in that of `CCN(C)CCOCCN(C)C`, 9.65.

For the molecule `O=C(Nc1nnc(-c2ccccc2)s1)c1ccccc1`, the pKa (acidic group) is 6.8. In turn, `Cc1cnc2c(cc(C)c3cccnc32)c1C` had a pKa (basic group) of 5.93. Same read-out and setting: in the case of `C=O` it was 1.15.

The molecule `[NH3+]CCCCCc1ccccn1` gave a pKa (basic group) of 5.7.

`OCCNc1ccccc1` came in with a pKa (basic group) of 4.09. The molecule `CCc1ccc(C(=O)/C=C/C(=O)O)cc1` registered a pKa (acidic group) of 3.38. `Cc1ccccc1NN=C(C#N)C#N`: the pKa is, setting by setting: (acidic group) 6.9; (basic group) -0.84.

On to `CNCC(=O)[O-]`, for which, where the note is “basic group”, the pKa amounted to 10.1. On the same count and under the same terms, in the case of `Nc1ccc2c(c1)Cc1c(O)cccc1-2` it was 4.63; in that of `CC1=Nc2ccc([N+](=O)[O-])cc2N=C(C)C1`, 4.95.
